Reference: patent US20190111040A1, “IN VIVO AMELIORATION OF ENDOGENOUS ANTI-TUMOR AUTOANTIBODIES TARGETING SURFACE TUMOR ANTIGENS VIA LOW-DOSE P4N” (THE JOHNS HOPKINS UNIVERSITY, priority 2016, published 2019)
Counter-ions that a name gives are not always drawn.

What was measured:
human PBMCs = assay: Activin A and BAFF expression in human PBMCs; type: cell-based; conditions: low dose P4N (3 μM)
Protocol: FIGS. 5A-5F depict the expression of Activin A/BAFF induced by P4N treatments. (A) P4N induced Activin A or BAFF expression in human PBMCs as determined by RT-PCR. S1-S5 display different individual blood samples collected from 5 different human donors; N, no treatment; P, P4N-treatment (3 μM). The change in Activin A and BAFF expression (mean of 5 patients) relative to the control (NC) is plotted as a histogram (B) The effect of increasing dosages of P4N for 12 h on mRNA and protein levels of Activin A or BAFF in THP-1 cells was analyzed by RT-PCR and ELISA. (C) The effect of 6 μM P4N on mRNA and protein levels of Activin A or BAFF in THP-1 cells was determined at a different time period. (D) The effect of different inhibitors on Activin A-induced BAFF expression was examined. The expression of BAFF mRNA in inhibitor-treated THP-1 cells was determined by RT-PCR, and (E) BAFF protein secretion was measured by ELISA. (F) The effect of THP-1 conditioned media on the proliferation of Raji cells and OKT3 hybridoma cells were determined. […] The results are expressed as % viable cells relative to the control (NC, media from untreated THP-1 cells). […]
Reverse transcription PCR. Human PBMCs or THP-1 cells were treated with P4N, and then the mRNA expression of INHBA and BAFF in these cells was measured by reverse transcription PCR. […]

CT26 tumors [1] = assay: P4N treatments in vivo, CT-26 tumors in BALB/c mice; conditions: one intratumoral injection of 2.5 mg/kg or 5 mg/kg
Protocol: P4N treatments in vivo. BALB/c or BALB/c/nu mice (6 week old) were inoculated subcutaneously with 1×10^6 CT-26 cells in 100 μl PBS. When the average tumor mass reached 50 mm^3, the animals were treated with 2.5 mg/kg or 5 mg/kg of P4N in one intratumoral injection. Subsequently, the tumor volumes were measured using a caliper every 2 days, and the volumes were calculated using the following formula: volume (mm^3)=length×width×height. Before sacrifice, the sera of the mice were collected for experimental use.

LTA4H = target: T1, LTA4H (Homo sapiens, UniProt P09960); assay: LTB4 ELISA in THP-1 culture media; type: cell-based; conditions: THP-1, 3 μM P4N
T1 construct: THP-1 cells (1×10^6 cells/ml/well) in a 24-well culture plate; endogenous in cells; host or cells: THP-1 cells (BCRC, Hsinchu, Taiwan)
T1 sequence (P09960 1-611): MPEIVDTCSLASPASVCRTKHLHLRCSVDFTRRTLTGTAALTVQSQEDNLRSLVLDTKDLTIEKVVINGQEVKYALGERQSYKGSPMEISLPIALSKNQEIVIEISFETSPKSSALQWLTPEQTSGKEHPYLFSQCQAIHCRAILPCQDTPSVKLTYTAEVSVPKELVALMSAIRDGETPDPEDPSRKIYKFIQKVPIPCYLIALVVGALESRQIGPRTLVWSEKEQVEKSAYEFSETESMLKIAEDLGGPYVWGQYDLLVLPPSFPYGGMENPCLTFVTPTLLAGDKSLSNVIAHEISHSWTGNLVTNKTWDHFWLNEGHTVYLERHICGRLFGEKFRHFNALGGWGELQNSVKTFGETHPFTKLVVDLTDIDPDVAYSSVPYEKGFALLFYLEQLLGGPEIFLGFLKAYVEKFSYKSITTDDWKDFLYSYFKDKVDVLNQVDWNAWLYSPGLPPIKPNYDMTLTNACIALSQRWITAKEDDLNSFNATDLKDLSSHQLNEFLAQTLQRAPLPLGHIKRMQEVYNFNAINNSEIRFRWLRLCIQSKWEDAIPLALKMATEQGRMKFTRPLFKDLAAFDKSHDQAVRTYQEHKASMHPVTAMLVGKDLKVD
Protocol: ELISA assays. THP-1 cells (1×10^6 cells/ml/well) in a 24-well culture plate were pretreated with 10 μM bestatin (a LTA4H inhibitor, Sigma-Aldrich) for 2 h and then treated with 3 μM P4N for various time intervals. The levels of LTB4 in the culture media were determined by the LTB4 (Enzo Life Sciences, Farmingdale, N.Y.) (R&D) ELISA Kits. The amount of TNF-α, IL-8 and Activin A in cultured media were measured in a similar manner.

CT26 tumors [2] = assay: Immunohistochemical staining of tumors after P4N; type: in vivo, mice
Excerpt: Immunohistochemical staining. Tumors isolated from P4N and vehicle-treated mice were embedded in paraffin and thin sections were made and processed for immunohistochemical staining. The sections were probed with rat monoclonal anti-F4/80 (1:50 dilution; GeneTex, Irvine, Calif.) and anti-CD20 (1:200 dilution; Santa Cruz Biotechnology, Dallas, Tex.), hamster monoclonal anti-CD11c (1:25 dilution; GeneTex), rabbit monoclonal anti-CD3 (1:50 dilution; GeneTex), rabbit polyclonal anti-TNF-α and anti-IL-8 antibody (1:50 dilution; Assay BioTech. Sunnyvale, Calif.) at 4° C. overnight, and the detection antibodies were recognized using a horseradish peroxidase (HRP)-conjugated anti-rat, anti-hamster, or anti-rabbit IgG antibody (1/1,500 dilution; Santa Cruz Biotechnology). The immune complexes in the sections were visualized using the LSAB2 system (DAKO, Carpinteria, Calif.). The sections were counterstained with hematoxylin, mounted, observed under a light microscope at a magnification of 400×, and photographed.

- production of LTA4H reaction product LTB4 (LTA4H): increased the production
SMILES: C[C@H](Cc1ccc(OCCN2CCCCC2)c(OCCN2CCCCC2)c1)[C@@H](C)Cc1ccc(OCCN2CCCCC2)c(OCCN2CCCCC2)c1 [P4N, meso-2,3-dimethyl-1,4-bis(3,4-[2-(piperidino)ethoxyphenyl])butane tetrakishydrochloride salt]
- gene expression and protein production of Activin A and BAFF (human PBMCs): increase their gene expression and protein production
- growth of CT26 tumors (CT26 tumors [1]): significantly inhibited
- expression levels of TNF-α and IL-8 in tumors (CT26 tumors [2]; 5 mg/kg intratumoral, day 7, both strains of mice): enhanced the expression levels
- infiltration of immune cells (macrophages, DC, T or B cells) into the tumor area (CT26 tumors [2]; single intratumoral injection 5 mg/kg, day 7, IHC): led to the infiltration of immune cells
